Structures are written as SMILES.

The experiment has as its target T1, wt PPARG (Homo sapiens, UniProt P37231).
T1 construct: host or cells: 293T
The experiment can be described thus: Gel-based competitive IC50 determination in 293T lysates: WT PPARγ. It is filed as binding. The note with it: wt PPARG expressed in 293T cells, lysate, 1 h, then 10 μM 24c-Cy3. An excerpt: Finally, we sought to understand the molecular basis for PPARγ binding by the synthetic analogues of deoxyelephantopin through identification of the precise covalently modified amino acid site. There is literature precedent for oxidized fatty acids containing an α,β-unsaturated ketone to form a covalent bond with a cysteine in the ligand-binding site of PPARγ[53]. More recently, synthetic ligands binding reversibly to a distinct site were identified. […] Bearing in mind that the structurally simplified, and thus less prone to MS/MS fragmentation, probe 23c binds PPARγ as efficiently as 24c (Supplementary Fig. 13), we treated the recombinant nuclear receptor with the former compound, digested the protein and analysed the resulting peptides by LC–MS/MS. […]
Supplementary figure 21: Top: Fluorescence gels corresponding to the IC50 curves presented in the main text Figure 8b. γ fluorescence signal in percentage after 19a treatment. […]
Biological materials. […] Protein concentration was determined using the Bradford assay (Bio-Rad).
Cell culture and preparation of lysates. […] Cells were lysed by sonication to form cell lysates and protein concentration was determined using the Bradford […]

T1 sequence (P37231 whole entry): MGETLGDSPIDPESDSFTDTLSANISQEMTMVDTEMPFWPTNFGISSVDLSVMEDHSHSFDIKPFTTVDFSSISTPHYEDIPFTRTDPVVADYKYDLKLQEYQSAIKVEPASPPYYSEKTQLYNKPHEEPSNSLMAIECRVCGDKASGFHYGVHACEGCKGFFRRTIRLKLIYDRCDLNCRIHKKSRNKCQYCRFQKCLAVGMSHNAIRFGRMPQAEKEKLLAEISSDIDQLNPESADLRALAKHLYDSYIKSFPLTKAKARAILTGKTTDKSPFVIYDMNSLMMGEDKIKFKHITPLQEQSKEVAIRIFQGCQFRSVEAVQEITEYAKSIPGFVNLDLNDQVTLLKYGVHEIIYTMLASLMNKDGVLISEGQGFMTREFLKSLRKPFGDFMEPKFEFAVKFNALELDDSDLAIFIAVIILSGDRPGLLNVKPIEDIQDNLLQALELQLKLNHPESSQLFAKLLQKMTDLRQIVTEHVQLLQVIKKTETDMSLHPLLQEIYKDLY

The term IC50 denotes the concentration at which inhibition is half-maximal. Lower therefore signals higher potency. Regarding `C=C(C)C(=O)O[C@H]1CC2=C[C@H](C/C=C\[C@H]3OC(=O)C(=C)[C@H]13)OC2=O` [19a], the concentration for half-maximal inhibition (IC50) turned out to be 19 µM.

The values above are taken from publication PMC4992173, “Divergent synthesis and identification of the cellular targets of deoxyelephantopins” (Nature Communications, 2016).
